# Results: patent US11051515B2, “3-acyl-benzamides and their use as herbicides” (Bayer Aktiengesellschaft, priority 2017, dated 2021)
# Columns and labels:
# [1] = test system: AMARE; experiment: Pre-emergence action against AMARE; format: in vivo, Amaranthus retroflexus; conditions: pre-emergence, dosage 320 g/ha, scored visually after 3 weeks vs untreated controls
# How it was run: (§1)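 Seeds sown in sandy loam in wood-fiber pots and covered with soil. Greenhouse growth; visual damage scored after 3 weeks versus untreated controls (100% = dead, 0% = like control).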
# [2] = test system: STEME; experiment: Pre-emergence action against STEME; format: in vivo, Stellaria media; conditions: Dosage 320 g/ha, pre-emergence
# How it was run: as §1
# [3] = test system: ECHCG; experiment: Pre-emergence action against ECHCG; format: in vivo, Echinochloa crus-galli; conditions: pre-emergence, dosage 320 g/ha, scored visually after 3 weeks vs untreated controls
# How it was run: as §1
# [4] = test system: VERPE; experiment: Pre-emergence action against VERPE; format: in vivo, Veronica persica; conditions: Dosage 320 g/ha, pre-emergence
# How it was run: as §1
# [5] = test system: VIOTR; experiment: Pre-emergence action against VIOTR; format: in vivo, Viola tricolor; conditions: Dosage 320 g/ha, pre-emergence
# How it was run: as §1
# [6] = test system: ALOMY; experiment: Pre-emergence action against ALOMY; format: in vivo, Alopecurus myosuroides; conditions: dosage 320 g/ha; pre-emergence; scored visually after 3 weeks vs untreated controls; 100% = plants have died, 0% = like control plants
# How it was run: as §1
# [7] = test system: POLCO; experiment: Post-emergence action against POLCO; format: in vivo, Polygonum convolvulus; conditions: post-emergence, dosage 80 g/ha
# How it was run: (§2)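 Post-emergence foliar spray on greenhouse plants at the one-leaf stage, using wettable-powder or emulsion-concentrate formulations in water (600 to […], plus 0.2% wetting agent). Damage scored by eye roughly 3 weeks later against untreated plants: 0% = like control, 100% = dead.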
# [8] = test system: STEME; experiment: Post-emergence action against STEME; format: in vivo, Stellaria media; conditions: post-emergence, dosage 80 g/ha
# How it was run: as §2
# [9] = test system: VERPE; experiment: Post-emergence action against VERPE; format: in vivo, Veronica persica; conditions: dosage 80 g/ha
# How it was run: as §2
# [10] = test system: SETVI; experiment: Pre-emergence action against SETVI; format: in vivo, Setaria viridis; conditions: pre-emergence, dosage 320 g/ha, scored visually after 3 weeks vs untreated controls
# How it was run: as §1
# [11] = test system: POLCO; experiment: Pre-emergence action against POLCO; format: in vivo, Polygonum convolvulus; conditions: Dosage 320 g/ha, pre-emergence
# How it was run: as §1
# [12] = test system: MATIN; experiment: Post-emergence action against MATIN; format: in vivo, Matricaria inodora; conditions: post-emergence, dosage 80 g/ha, visual assessment about 3 weeks after treatment vs untreated controls
# How it was run: as §2
# [13] = test system: AMARE; experiment: Post-emergence action against AMARE; format: in vivo, Amaranthus retroflexus; conditions: post-emergence, dosage 80 g/ha, visual assessment about 3 weeks after treatment vs untreated controls
# How it was run: as §2
# [14] = test system: PHBPU; experiment: Post-emergence action against PHBPU; format: in vivo, Pharbitis purpurea; conditions: post-emergence, dosage 80 g/ha
# How it was run: as §2
# [15] = test system: ABUTH; experiment: Pre-emergence action against ABUTH; format: in vivo, Abutilon theophrasti; conditions: pre-emergence, dosage 320 g/ha, scored visually after 3 weeks vs untreated controls
# How it was run: as §1
# [16] = test system: ECHCG; experiment: Post-emergence action against ECHCG; format: in vivo, Echinochloa crus-galli; conditions: post-emergence, dosage 80 g/ha, visual assessment about 3 weeks after treatment vs untreated controls
# How it was run: as §2
# [17] = test system: CYPES; experiment: Pre-emergence action against CYPES; format: in vivo, Cyperus esculentus; conditions: pre-emergence, dosage 320 g/ha, scored visually after 3 weeks vs untreated controls
# How it was run: as §1
# [18] = test system: MATIN; experiment: Pre-emergence action against MATIN; format: in vivo, Matricaria inodora; conditions: Dosage 320 g/ha, pre-emergence
# How it was run: as §1
# [19] = test system: LOLMU; experiment: Pre-emergence action against LOLMU; format: in vivo, Lolium multiflorum; conditions: dosage 320 g/ha, scored visually after 3 weeks vs untreated controls
# Source text: Seeds of monocotyledonous and dicotyledonous weed plants and crop plants are laid out in sandy loam soil in wood-fiber pots and covered with soil. The compounds of the invention, formulated in the form of wettable powders (WP) or as emulsion concentrates (EC), are then applied to the surface of the covering soil in the form of an aqueous suspension or emulsion at a water application rate equating to […], with addition of 0.2% wetting agent. After the treatment, the pots are placed in a greenhouse and kept under good growth conditions for the trial plants. The damage to the test plants is scored visually after a test period of 3 weeks by comparison with untreated controls (herbicidal activity in percent (%): 100% activity=the plants have died, 0% activity=like control plants).
# [20] = test system: CYPES; experiment: Post-emergence action against CYPES; format: in vivo, Cyperus esculentus; conditions: post-emergence, dosage 80 g/ha, visual assessment about 3 weeks after treatment vs untreated controls
# How it was run: as §2
# [21] = test system: SETVI; experiment: Post-emergence action against SETVI; format: in vivo, Setaria viridis; conditions: post-emergence, dosage 80 g/ha, visual assessment about 3 weeks after treatment vs untreated controls
# How it was run: as §2
# [22] = test system: VIOTR; experiment: Post-emergence action against VIOTR; format: in vivo, Viola tricolor; conditions: post-emergence, dosage 80 g/ha
# How it was run: as §2
# [23] = test system: ABUTH; experiment: Post-emergence action against ABUTH; format: in vivo, Abutilon theophrasti; conditions: post-emergence, dosage 80 g/ha, visual assessment about 3 weeks after treatment vs untreated controls
# How it was run: as §2
# [24] = test system: AVEFA; experiment: Pre-emergence action against AVEFA; format: in vivo, Avena fatua; conditions: dosage 320 g/ha, scored visually after 3 weeks vs untreated controls
# How it was run: as §1
SMILES,Pre-emergence action against AMARE (herbicidal activity) [1] [%],Pre-emergence action against STEME [2] [%],Pre-emergence action against ECHCG (herbicidal activity) [3] [%],Pre-emergence action against VERPE [4] [%],Pre-emergence action against VIOTR [5] [%],Pre-emergence action against ALOMY (herbicidal activity in percent) [6] [%],Post-emergence action against POLCO [7],Post-emergence action against STEME [8],Post-emergence action against VERPE [9],"SETVI (Table B8, pre-emergence herbicidal activity) [10] [%]",Post-emergence action against MATIN (herbicidal action in percent) [12] [%],Post-emergence action against AMARE (herbicidal action in percent) [13] [%],Post-emergence action against PHBPU [14],Pre-emergence action against ABUTH (herbicidal activity) [15] [%],Post-emergence action against ECHCG (herbicidal action in percent) [16] [%],Pre-emergence action against CYPES (herbicidal activity) [17] [%],Pre-emergence action against MATIN [18] [%],Pre-emergence action against LOLMU (herbicidal activity) [19] [%],Post-emergence action against CYPES (herbicidal action in percent) [20] [%],Post-emergence action against VIOTR [22],further results
CCn1nnnc1NC(=O)c1ccc(C(F)(F)F)c(C(C)=O)c1OC [2-48],100,90,100,100,100,90,80,100,80,100,100,90,100,100,90,100,100,80,100,100,Pre-emergence action against POLCO [11]: 90%; Post-emergence action against SETVI (herbicidal action in percent) [21]: 80%; Post-emergence action against ABUTH (herbicidal action in percent) [23]: 100%
CCn1nnnc1NC(=O)c1ccc(Cl)c(C(C)=O)c1Cl [2-114],100,90,100,90,100,80,90,100,80,90,80,100,90,100,90,90,90,80,90,100,Pre-emergence action against AVEFA (herbicidal activity) [24]: 80%; Post-emergence action against ABUTH (herbicidal action in percent) [23]: 90%
